# Experiments:
# [1] = target: CDK2/CycE1 (Homo sapiens, UniProt P24941); experiment: In vitro kinase TR-FRET assay CDK2/CycE1; assay type: biochemical; conditions: enzyme 0.6 nM, ATP 82 μM, read-out: CDK2 cyclinE1 activity assay: IC50
# Procedure: (§1) In vitro kinase TR-FRET assays: CDK2/CycA2, CDK2/CycE1, CDK1/cyclinB and GSK3β
# (§2) The test compounds were prepared as 10 mM stock solution in 100% DMSO. The stock solution was then serially diluted 3-fold in 100% DMSO to 10 concentrations. 200 nL of each diluted compound solution was transferred to 384-well plate in duplicate. To each well, 5 uL of enzyme and ATP mixture solution containing enzyme CDK2/CycA2, CDK2/CycE1, CDK1/cyclinB, or GSK30 (final concentrations 3 nM, 0.6 nM, 0.3 nM, 0.6 nM, respectively) and ATP (final concentrations 27 μM, 82 μM, 56 μM, 7.6 μM, respectively) in the assay buffer (50 mM HEPES, pH7.5, 10 mM MgCl2, 1 mM DTT, 0.01% BSA, 0.01% Triton X-100). For negative control, 5 uL of assay buffer was added instead. The plate was incubated at room temperature for 10 min. 5 uL of peptide solution containing ULight-4E-BP1 peptide (final concentrations 50 nM) in the assay buffer was subsequently added into each well to initiate the reaction. By incubation at room temperature for 1 hour, 10 uL of 2 nM Eu-anti-phospho-4E BP1 antibody was then added for detection. After one hour incubation at room temperature, all samples were subjected to read the TR-FRET signal on Envision with excitation at 340 nm and emission fluorescence at 615 nm and 665 nm. IC50 values were then calculated by plotting dose-response curves and then using the XLfit application in Excel software.
# [2] = target: CDK2/CycA2 (Homo sapiens, UniProt P24941); experiment: In vitro kinase TR-FRET assay CDK2/CycA2; assay type: biochemical; conditions: enzyme 3 nM, ATP 27 μM, read-out: CDK2 cyclinA2 activity assay: IC50
# Procedure: as §1, §2
# [3] = system: OVCAR3; experiment: Cell proliferation (CyQUANT) OVCAR3; assay type: cell-based; conditions: Homo sapiens, OVCAR-3, 168 h, OVCAR3, 7 days, read-out: Anti-proliferation assay: IC50 (nM) [Cell Line: OVCAR3]
# Procedure: (§3) Cancer cell lines, namely, OVCAR3, TOV21G were seeded onto 96 well cell culture plates at a density of 2500, 1000 or 3000 cells/well, respectively and cultured overnight. Cells treated with test compounds at 3-fold dose titration for 7 days at maximum final DMSO concentration of 0.01%. The CyQUANT® Cell Proliferation Assay, a highly sensitive fluorescence-based method for quantifying cells and assessing cell proliferation and cytotoxicity was employed, following manufacturer's procedure (ThermnoFisher, Cataloge #C35012). Plates were scanned with a laser-based Acumen Cellistra instrument by TTP LabTech at Ex/Em 480/520 nm. % Inhibition is calculated based on DMSO control wells on the same plate (ie, DMSO wells have 100% growth and 0% growth inhibition).
# [4] = target: GSK3β (Homo sapiens, UniProt P49841); experiment: In vitro kinase TR-FRET assay GSK3β; assay type: biochemical; conditions: enzyme 0.6 nM, ATP 7.6 μM
# GSK3β, sequence (P49841 whole entry, species assumed): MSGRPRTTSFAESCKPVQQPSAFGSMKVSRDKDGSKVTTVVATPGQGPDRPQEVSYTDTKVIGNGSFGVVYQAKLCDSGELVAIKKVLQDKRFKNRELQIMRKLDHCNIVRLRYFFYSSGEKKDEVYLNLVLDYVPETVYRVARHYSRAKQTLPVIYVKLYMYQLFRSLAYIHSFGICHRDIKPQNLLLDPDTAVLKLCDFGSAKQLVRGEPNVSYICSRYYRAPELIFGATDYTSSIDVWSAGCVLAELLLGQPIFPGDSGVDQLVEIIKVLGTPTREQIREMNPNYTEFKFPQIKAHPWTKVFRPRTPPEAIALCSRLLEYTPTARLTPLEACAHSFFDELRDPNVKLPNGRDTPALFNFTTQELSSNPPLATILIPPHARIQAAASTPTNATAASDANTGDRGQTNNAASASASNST
# Procedure: as §1, §2
# [5] = target: CDK1/cyclinB (Homo sapiens, UniProt P06493); experiment: In vitro kinase TR-FRET assay CDK1/cyclinB; assay type: biochemical; conditions: enzyme 0.3 nM, ATP 56 μM
# CDK1/cyclinB, sequence (P06493 whole entry): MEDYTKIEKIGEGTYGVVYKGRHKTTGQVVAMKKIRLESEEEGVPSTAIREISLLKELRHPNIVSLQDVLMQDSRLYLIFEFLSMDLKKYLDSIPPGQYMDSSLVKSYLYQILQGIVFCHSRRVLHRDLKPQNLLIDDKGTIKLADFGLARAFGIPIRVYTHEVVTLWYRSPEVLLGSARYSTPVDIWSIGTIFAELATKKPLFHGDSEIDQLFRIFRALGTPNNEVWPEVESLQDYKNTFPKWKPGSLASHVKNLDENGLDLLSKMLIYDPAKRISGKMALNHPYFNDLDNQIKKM
# CDK1/cyclinB, sequence (P14635 whole entry partner): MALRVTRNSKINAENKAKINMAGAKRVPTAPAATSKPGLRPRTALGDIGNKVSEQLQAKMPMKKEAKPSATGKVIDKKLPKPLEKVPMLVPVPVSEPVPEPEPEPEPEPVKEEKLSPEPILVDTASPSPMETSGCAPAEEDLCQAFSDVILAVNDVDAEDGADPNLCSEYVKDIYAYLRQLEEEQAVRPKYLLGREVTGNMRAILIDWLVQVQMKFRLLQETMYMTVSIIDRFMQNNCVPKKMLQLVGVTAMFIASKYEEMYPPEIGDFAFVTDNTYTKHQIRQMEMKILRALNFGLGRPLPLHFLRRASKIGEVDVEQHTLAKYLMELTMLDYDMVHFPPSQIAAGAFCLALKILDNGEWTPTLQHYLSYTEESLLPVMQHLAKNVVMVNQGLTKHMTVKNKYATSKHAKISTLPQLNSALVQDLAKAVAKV
# Procedure: as §1, §2
# [6] = system: TOV21G; experiment: Cell proliferation (CyQUANT) TOV21G; assay type: cell-based; conditions: Homo sapiens, 168 h, 7 days, read-out: Anti-proliferation assay: IC50 (nM) [Cell Line: TOV21G]
# Procedure: as §3
Compound,IC50 [1] [nM],IC50 [2] [nM],IC50 [3] [nM],IC50 [4] [nM],IC50 [5] [nM],IC50 [6] [nM]
"CC(C)NC(=O)O[C@@H]1CC[C@H](c2cc(Nc3ccc4c(c3)CCC(=O)N4)[nH]n2)C1 [Example 30, (1R,3S)-3-{5-[(2-oxo-1,2,3,4-tetrahydroquinolin-6-yl)amino]-1H-pyrazol-3-yl}cyclopentyl (prop-2-ylamino)methanoate]",< 50,< 50,500 to 1000,> 1000,50 to 500,≥ 1000
"CC(C)NC(=O)O[C@@H]1CC[C@H](c2cc(Nc3ccc4c(c3)C(C#N)CC4)n[nH]2)C1 (stereo partly drawn) [Example 31, (1R,3S)-3-{5-[(3-cyano-2,3-dihydro-1H-inden-5-yl)amino]-2H-pyrazol-3-yl}cyclopentyl (prop-2-ylamino)methanoate]",< 50,< 50,≤ 500,50 to 500,50 to 500,≤ 500
"CC(C)NC(=O)O[C@@H]1CC[C@H](c2cc(Nc3ccc4c(c3)CC(F)(F)C4)n[nH]2)C1 [Example 32, (1R,3S)-3-(3-((2,2-difluoro-2,3-dihydro-1H-inden-5-yl)amino)-1H-pyrazol-5-yl)cyclopentyl isopropylcarbamate]",< 50,< 50,≤ 500,500 to 1000,50 to 500,≥ 1000
"CC(C)NC(=O)O[C@H]1CC[C@@H](c2cc(Nc3ccc4c(c3)CS(=O)(=O)C4)n[nH]2)CC1 [Example 33, (1s,4s)-4-(3-((2,2-dioxido-1,3-dihydrobenzo[c]thiophen-5-yl)amino)-1H-pyrazol-5-yl)cyclohexyl isopropylcarbamate]",< 50,< 50,≤ 500,> 1000,< 50,≤ 500
"CC(C)NC(=O)O[C@@H]1CC[C@H](c2cc(Nc3ccc4c(c3)oc(=O)n4C)n[nH]2)C1 [Example 34, (1R,3S)-3-{5-[(3-methyl-2-oxobenzo[d][1,3]oxazol-6-yl)amino]-2H-pyrazol-3-yl}cyclopentyl (prop-2-ylamino)methanoate]",< 50,< 50,500 to 1000,500 to 1000,50 to 500,≥ 1000
"CC(C)NC(=O)O[C@@H]1CC[C@H](c2cc(Nc3cccc4c3CCS4(=O)=O)n[nH]2)C1 [Example 36, (1R,3S)-3-(3-((1,1-dioxido-2,3-dihydrobenzo[b]thiophen-4-yl)amino)-1H-pyrazol-5-yl)cyclopentyl isopropylcarbamate]",< 50,< 50,≤ 500,50 to 500,50 to 500,≤ 500
"CC(C)NC(=O)O[C@H]1CC[C@@H](c2cc(Nc3ccc4c(c3)S(=O)(=O)NC4)n[nH]2)CC1 [Example 37, (1s,4s)-4-(3-((1,1-dioxido-2,3-dihydrobenzo[d]isothiazol-6-yl)amino)-1H-pyrazol-5-yl)cyclohexyl isopropylcarbamate]",< 50,< 50,≥ 1000,> 1000,50 to 500,≥ 1000
"CC(C)NC(=O)O[C@@H]1CC[C@H](c2cc(Nc3ccc4c(c3)NS(=O)(=O)C4)n[nH]2)C1 [Example 38, (1R,3S)-3-(3-((2,2-dioxido-1,3-dihydrobenzo[c]isothiazol-6-yl)amino)-1H-pyrazol-5-yl)cyclopentyl isopropylcarbamate]",< 50,< 50,≤ 500,> 1000,< 50,≥ 1000
"CC(C)NC(=O)O[C@@H]1CC[C@H](c2cc(Nc3cccc4c3CS(=O)(=O)C4)n[nH]2)C1 [Example 40, (1R,3S)-3-{5-[(2,2-dioxo-1,3-dihydro-2λ^6-benzo[c]thiophen-4-yl)amino]-2H-pyrazol-3-yl}cyclopentyl (prop-2-ylamino)methanoate]",< 50,< 50,≤ 500,> 1000,50 to 500,≥ 1000
"CC(C)NC(=O)O[C@@H]1CC[C@H](c2cc(Nc3ccc4c(c3)N(C)S(=O)(=O)C4)n[nH]2)C1 [Example 41, (1R,3S)-3-{5-[(1-methyl-2,2-dioxo-1,3-dihydro-2X^6-benzo[2,1-c][1,2]thiazol-6-yl)amino]-2H-pyrazol-3-yl}cyclopentyl (prop-2-ylamino)methanoate]",< 50,< 50,≤ 500,500 to 1000,50 to 500,≤ 500
"CC(C)NC(=O)O[C@@H]1CC[C@H](c2cc(Nc3ccc4c(c3)CS(=O)(=O)N4C)n[nH]2)C1 [Example 42, (1R,3S)-3-{5-[(1-methyl-2,2-dioxo-1,3-dihydro-2%6-benzo[c][1,2]thiazol-5-yl)amino]-2H-pyrazol-3-yl}cyclopentyl (prop-2-ylamino)methanoate]",< 50,< 50,≤ 500,500 to 1000,50 to 500,≤ 500
"CC(C)NC(=O)O[C@@H]1CC[C@H](c2cc(Nc3ccc4c(c3)CS(=O)(=O)N4)n[nH]2)C1 [Example 45, (1R,3S)-3-{5-[(2,2-dioxo-1,3-dihydro-2λ6-benzo[c][1,2]thiazol-5-yl)amino]-2H-pyrazol-3-yl}cyclopentyl (prop-2-ylamino)methanoate]",< 50,< 50,≥ 1000,> 1000,< 50,≥ 1000
"CC(C)NC(=O)O[C@@H]1CC[C@H](c2cc(Nc3cccc4c3CNS4(=O)=O)n[nH]2)C1 [Example 46, (1R,3S)-3-(3-((1,1-dioxido-2,3-dihydrobenzo[d]isothiazol-4-yl)amino)-1H-pyrazol-5-yl)cyclopentyl isopropylcarbamate]",< 50,< 50,≤ 500,50 to 500,50 to 500,500 to 1000
"CC(C)NC(=O)O[C@@H]1CC[C@H](c2cc(Nc3cccc4c3CN(C)S4(=O)=O)n[nH]2)C1 [Example 47, (1R,3S)-3-(3-((2-methyl-1,1-dioxido-2,3-dihydrobenzo[d]isothiazol-4-yl)amino)-1H-pyrazol-5-yl)cyclopentyl isopropylcarbamate]",< 50,< 50,≤ 500,> 1000,50 to 500,≤ 500
"CC(C)NC(=O)O[C@H]1CC[C@@H](c2cc(Nc3cccc4c3CCS4(=O)=O)n[nH]2)CC1 [Example 49, (1s,4s)-4-(3-((1,1-dioxido-2,3-dihydrobenzo[b]thiophen-4-yl)amino)-1H-pyrazol-5-yl)cyclohexyl isopropylcarbamate]",< 50,< 50,≤ 500,> 1000,50 to 500,500 to 1000
"CC(C)NC(=O)O[C@@H]1CC[C@H](c2cc(Nc3ccc(F)c4c3CCS4(=O)=O)n[nH]2)C1 [Example 50, (1R,3S)-3-{5-[(7-fluoro-1,1-dioxo-2,3-dihydro-1λ^6-benzothiophen-4-yl)amino]-2H-pyrazol-3-yl}cyclopentyl (prop-2-ylamino)methanoate]",< 50,< 50,≤ 500,50 to 500,50 to 500,≤ 500
"CC(C)NC(=O)O[C@@H]1CC[C@H](c2cc(Nc3ccc4c(n3)CCS4(=O)=O)n[nH]2)C1 [Example 55, (1R,3S)-3-(3-((1,1-dioxido-2,3-dihydrothieno[3,2-b]pyridin-5-yl)amino)-1H-pyrazol-5-yl)cyclopentyl isopropylcarbamate]",< 50,< 50,≤ 500,50 to 500,50 to 500,≥ 1000

# Source: patent US20240246950A1, “Anilino-Pyrazole Derivatives, Compositions and Methods Thereof” (Ensem Therapeutics, priority 2022, published 2024)
